The source of these data is patent publication US11986458B1, “Natural and synthetic andrographolides compounds for the treatment of skeletal muscular dystrophies” (Innobiosciences LLC, priority 2018, dated 2024).

One data set has as its system MES-13 cells. As to conditions: cited from earlier work; for intracellular oxidative states: high glucose cultured MES-13 cells.
The test system of data set [1] is patients with Duchenne Muscular Dystrophy. The data set is described as follows: PedsQL for Duchenne Muscular Dystrophy Module questionnaire in pediatric DMD patients. The format is in vivo, human. The conditions noted are these: 70 mg orally twice per day. Here is the method:
Thirteen pediatric patients were derived from the Chilean Duchenne Association with confirmed clinical diagnostic. Of the thirteen patients, seven of them used chronic glucocorticoid treatment (Table A). Two of the patients had disease advanced enough so that the patients were no longer ambulatory.
All patients, both those treated with glucocorticoid and those not requiring glucocorticoid, received 70 mg andrographolide (as a standardized extract) orally two times per day. Treatment periods ranged from one month to more than twelve months. […] (Table B)
Thirteen (13) children with DMD of different ages (ranging from 4 to 14 years old) were treated with Andrographis paniculata capsules (either taking corticosteroids or not) for a variable period of time (ranging from one month to two years) (Table A).
Each parent or tutor received a questionnaire with different scores parameters to be completed. The parents were asked to fill out the Pediatric Quality of Life Inventory TM questionnaire (PedsQL for Duchenne Muscular Dystrophy Module) of their perception about; Quality of life, Sleep, Pain, Cold, Walk/Move, Play/Run, Jump, Coordination, Force and Mood of children during Andrographis paniculata treatment (Table B).

Another data set relates to CTGF. As to conditions: in vitro (skeletal cells); cited from earlier work.
For data set [2], the system named is mdx mice. The data set can be described thus: Life expectancy / survival of mdx mice under life-long treatment. The format is in vivo, mouse. Here is the method:
Groups of mdx mice were treated with or without andrographolide (1.0 mg/kg/day) 3 times per weeks starting at one month old until they die naturally. The animals were maintained under free food and water access all the time. Days of death was recorded.
To evaluate whether andrographolide affects survival in dystrophic mice we perform a long term treatment with andrographolide through intra-peritoneal injections, three times per weeks starting at one month old until they die naturally, in order to determine the effects over life expectancy in mdx mice.

The subject of data set [3] is mdx mice. The data set is described as follows: Isometric force of isolated muscles from treated exercised mdx mice. The data set is classed as in vivo, mouse. As to conditions: treadmill exercise, andrographolide 1.0 mg/kg/day ip, prednisone 5 mg/kg, single electro-stimulation and high frequency stimulation. As for the experimental part:
We used 12-week-old control or mdx male mice of the C57BL/10 ScSn strain. The animals were kept at room temperature with a 24-hour night-day cycle and were fed with pellets and water ad libitum. Experimental exercise involved running the mice on a treadmill three times per week for 30 minutes each session at 12 m/minute over three or four months. […]
The isometric force of isolated muscles was measured as described previously. Briefly, optimum muscle length (Lo) and stimulation voltage were determined from micromanipulation of muscle length to produce maximum isometric twitch force. Maximum isometric tetanic force (Po) was determined from the plateau of the frequency-force relationship after successive stimulations at 1 to 200 Hz for 450 ms, with 2-minute rests between stimuli. […]

A further data set deals with mdx mouse. The conditions noted are these: cited from earlier work.
The test system of data set [4] is cholestasis-induced apoptosis. As to conditions: in vivo; cited from earlier work.
For data set [5], the system named is mdx mice. The data set can be described thus: Skeletal muscle histology (H&E) and collagen type I indirect immunofluorescence, tibialis anterior of mdx mice. The conditions noted are these: 3 months administration; for damaged areas in muscle, Hematoxylin and Eosin staining: tibialis anterior, compared to vehicle-treated mdx mice. The data set is classed as in vivo, mouse. Here is the method: We used 12-week-old control or mdx male mice of the C57BL/10 ScSn strain. The animals were kept at room temperature with a 24-hour night-day cycle and were fed with pellets and water ad libitum. Experimental exercise involved running the mice on a treadmill three times per week for 30 minutes each session at 12 m/minute over three or four months. See Morales, MG. et al., Reducing CTGF/CCN2 Slows Down MDX Muscle Dystrophy And Improves Cell Therapy, 22 Hum Mol Genet 4938 (2013), DeLuca, A. et al., Enhanced Dystrophic Progression In MDX Mice By Exercise And Beneficial Effects Of Taurine And Insulin-Like Growth Factor-1, 304 J Pharmacol Exp Ther 453 (2003), DeLuca, A. et al., A Multidisciplinary Evaluation Of The Effectiveness Of Cyclosporine A In Dystrophic MDX Mice, 166 Am J Pathol 477 (2005), Cabello-Verrugio, C. et al., Angiotensin II Receptor Type 1 Blockade CTGF/CCN2-Mediated Damage And Fibrosis In Normal And Dytrophic Skeletal Muscles, 16 J Cell Mol Med 752 (2012). Four experimental groups were designed: animals in the first group were injected intraperitoneally (ip) with andrographolide (1.0 mg/kg/day). Animals in the second group were treated with prednisone (5 mg/kg). Third group, animals were treated with prednisone together with andrographolide. Fourth group animals were injected with saline. At the end of the experiment the muscles were dissected and removed under anesthesia (isofluorane gas) and then the animals were sacrificed. Tissues were used for electrophysiological measurement or rapidly frozen and stored at −80° C. until processing. All protocols were conducted in strict accordance with guidelines and with the formal approval of the Animal Ethics Committee of the Pontificia Universidad Católica de Chile.
Architecture and histology were detected by hematoxylin-eosin (H&E) stain in transverse sections of muscle. See Morales, MG. et al., CTGF/CCN-2 Over-Expression Can Directly Induce Features Of Skeletal Muscle Dystrophy, 225 J Pathol 490 (2011). Collagen Type I was determined as described in Morales, MG. et al., Reducing CTGF/CCN2 Slows Down MDX Muscle Dystrophy And Improves Cell Therapy, 22 Hum Mol Genet 4938 (2013).
Tissue samples evaluated using collagen type I immuno-staining. […] We posit that this prevents tissue damage in mdx mice.

The test system of another data set is DMD. The conditions noted are these: glucocorticoids such as prednisone; cited from earlier work.
Data set [6] relates to dystrophin. The conditions noted are these: cited from earlier work.
Data set [7] has as its system dystrophin. As to conditions: mdx mice; cited from earlier work.
[8] abbreviates: 12 DMD patients over a six-month period.

As for `C=C1CCC2C(C)(CO)C(O)CCC2(C)C1C=CC1=CCOC1=O` (stereo not drawn) [AP2, 14-deoxy-11,12-didehydro-andrographolide], the “reduction of apoptosis marker caspase-3, fibrosis marker TGF-β1, and PAI-1” value with MES-13 cells (MES-13 cells, comparison AP2 vs AP1) is on record as “more potent activity than AP1”. The “phenotypes indicating diabetic nephropathy” value with MES-13 cells (MES-13 cells) is given as “reduced the phenotypes indicating diabetic nephropathy”. Besides, in the data set on MES-13 cells, the “antioxidant ability in a cellular environment” value is given as “do not have antioxidant ability” and the intracellular oxidative states result is reported as “reduced intracellular oxidative states”.

As to `C=C1CC[C@@H]2[C@](C)(CO)[C@H](O)CC[C@@]2(C)[C@@H]1C/C=C1/C(=O)OC[C@H]1O` [andrographolide, 3-[2-[Decahydro-6-hydroxy-5-(hydroxymethyl)-5,8a-dimethyl-2-methylene-1-napthalenyl]ethylidene]dihydro-4-hydroxy-2(3H)-furanone], the “phenotypes indicating diabetic nephropathy” value in the data set with MES-13 cells (MES-13 cells) is listed as “reduced the phenotypes indicating diabetic nephropathy”. In addition, in the data set with MES-13 cells, the “antioxidant ability in a cellular environment” value was “do not have antioxidant ability” and the intracellular oxidative states result is on record as “reduced intracellular oxidative states”. Further, in data set [1] (13 DMD patients), the “improvement in quality of life, quality of sleep, pain, colds, coordination, force and mood” value is recorded as “important improvement”. In addition, the “overall effect on PedsQL parameters” value in data set [1] (all 13 DMD patients, one month to more than twelve months) is “slight to important improvement”. Further, the “expression of pro-fibrotic factor CTGF” value in the data set on CTGF is “able to inhibit”. Moreover, the total life expectancy entry in the data set on mdx mice [2] (mdx mice, 1.0 mg/kg/day ip three times per week from one month old until natural death, n=6) was “around 21.7±2.35 months”. In addition, the “increase of life expectancy of dystrophic mice” value in the data set on mdx mice [2] (versus vehicle-treated mdx mice) worked out at 15%. The “isolated muscle strength (maximal switch force and tetanic contraction)” value with mdx mice [3] is “improved muscle contraction at similar levels than the induced by prednisone”. In the data set on mdx mouse (animal model of DMD, the mdx mouse), the muscle associated fibrosis result is given as “significantly reduces muscle associated fibrosis”. Further, in the data set on mdx mouse (mdx mouse), the “exercise resistance in dystrophic mice” value is reported as “increase exercise resistance” and the “skeletal muscle force in dystrophic muscles” value was “increase”. Besides, in data set [4], the “protection against cholestasis-induced apoptosis” value is recorded as “potent protector”. For the same molecule, in the data set with mdx mice [5], the “fibrosis, collagen type I immuno-staining” value is recorded as “diminish fibrosis”; the “damaged areas in muscle, Hematoxylin and Eosin staining” value was “prevented the increase of damaged areas”.

`C[C@]12C=CC(=O)C=C1CC[C@@H]1[C@@H]2C(=O)C[C@@]2(C)[C@H]1CC[C@]2(O)C(=O)CO` [prednisone, reference compound]: the “isolated muscle strength (maximal switch force and tetanic contraction)” value in the data set on mdx mice [3] is “improved muscle contraction”. Also, the side effects result in the data set on DMD is on record as “severe side effects”. Also, in the data set on mdx mice [5], the “fibrosis, collagen type I immuno-staining” value is “diminish fibrosis”; the “damaged areas in muscle, Hematoxylin and Eosin staining” value is given as “prevented the increase of damaged areas”.

Consider gentamicin, for which, in the data set on dystrophin [6] (setting [8]), the clinical benefits result is “no clinical benefits were observed” and the “patients with dystrophin expression detected” value is 6 of the 12. The “muscle strength and re-expression of dystrophin in muscles” value in the data set with dystrophin [6] (one of the studies on DMD patients) is “beneficial effect on muscle strength and a re-expression of dystrophin in muscles”. The “dystrophin expression in muscle fibers above normal levels” value in the data set on dystrophin [7] is 20%.
